Measurements from patent publication US9034882B2, “Inhibitors of human immunodeficiency virus replication” (priority 2012, dated 2015).
Like-named read-outs stand apart in the source and are kept apart here.

Tested on: recombinant NL-Rluc virus
Assay: Inhibition of HIV replication (NL-RLuc luciferase reporter virus in MT-2 cells)
Format: cell-based
[1] = Human immunodeficiency virus 1, MT2, 120 h, read-out: Activity
[2] = Human immunodeficiency virus 1, MT2, 120 h, read-out: EC50 μM

Compound | EC50 [1] | EC50 [2] | EC50 (read-out: Activity, MT-2 cells infected with NL-RLuc virus, 5 days of incubation, luciferase readout, serum condition not given)
Cc1nc2cc(-c3cccc(OCc4ccccc4)c3)nn2c(N2CCC(C)(C)CC2)c1C(OC(C)(C)C)C(=O)O (stereo not shown) [Example 32, 2-(2-(3-(benzyloxy)phenyl)-7-(4,4-dimethylpiperidin-1-yl)-5-methylpyrazolo[1,5-a]pyrimidin-6-yl)2-(tert-butoxy)acetic acid] | < 0.1 µM | 0.06 µM | –
Cc1nc2cc(-c3cccc(OCc4ccccc4)c3)nn2c(N2CCC(C)CC2)c1C(OC(C)(C)C)C(=O)O (stereo not shown) [Example 31, 2-(2-(3-(benzyloxy)phenyl)-5-methyl-7-(4-methylpiperidin-1-yl)pyrazolo[1,5-a]pyrimidin-6-yl)20(tert-butoxy)acetic acid] | < 0.1 µM | – | –
Cc1nc2cc(-c3cccc(Oc4ccccc4)c3)nn2c(N2CCC(C)(C)CC2)c1[C@H](OC(C)(C)C)C(=O)O [Example 66, (S)-2-(tert-Butoxy)-2-(7-(4,4-dimethylpiperidin-1-yl)-5-methyl-2-(3-phenoxyphenyl)pyrazolo[1,5-a]pyrimidin-6-yl)acetic acid] | 0.1 to 1 µM | – | –
Cc1nc2cc(-c3cccc(-c4ccc(F)cc4)c3)nn2c(N2CCC(C)(C)CC2)c1[C@H](OC(C)(C)C)C(=O)O [Example 56, (S)-2-(tert-Butoxy)-2-(7-(4,4-dimethylpiperidin-1-yl)-2-(4′-fluoro-[1,1′-biphenyl]-3-yl)-5-methylpyrazolo[1,5-a]pyrimidin-6-yl)acetic acid] | 0.1 to 1 µM | – | –
Cc1nc2cc(-c3ccccc3)nn2c(N2CC[C@@H]3CCCC[C@@H]3C2)c1C(OC(C)(C)C)C(=O)O (stereo partly shown) [Example 14] | 0.1 to 1 µM | – | –
Cc1nc2nc(-c3ccccc3)nn2c(N2CCC(C)CC2)c1C(OC(C)(C)C)C(=O)O (stereo not shown) [Example 38, 2-tert-Butoxy-2-(5-methyl-7-(4-methylpiperidin-1-yl)-2-phenyl-[1,2,4]triazolo[1,5-a]pyrimidin-6-yl)acetic acid] | > 1 µM | – | –
Cc1nc2cc(-c3cccc(-c4ccc5cnn(C)c5c4)c3)nn2c(N2CCC(C)(C)CC2)c1[C@H](OC(C)(C)C)C(=O)O [Example 57, (S)-2-(tert-Butoxy)-2-(7-(4,4-dimethylpiperidin-1-yl)-5-methyl-2-(3-(1-methyl-1H-indazol-6-yl)phenyl)pyrazolo[1,5-a]pyrimidin-6-yl)acetic acid] | < 0.1 µM | – | –
Cc1nc2cc(-c3ccccc3)nn2c(N2CCC(F)CC2)c1C(OC(C)(C)C)C(=O)O (stereo not shown) [Example 12] | > 1 µM | – | –
Cc1nc2cc(-c3ccccc3)nn2c(N2CCCCC2C)c1C(OC(C)(C)C)C(=O)O (stereo not shown) [Example 20] | – | – | 0.1 to 1 µM
Cc1nc2c(-c3cccc(Cl)c3)cnn2c(N2CCC(C)(C)CC2)c1C(OC(C)(C)C)C(=O)O (stereo not shown) [Example 36, 2-(tert-butoxy)-2-(3-(3-chlorophenyl)-7-(4,4-dimethylpiperidin-1-yl)-5-pyrazolo[1,5a]pyrimidin-6-yl)acetic acid] | 0.1 to 1 µM | – | –
Cc1nc2cc(-c3cccc(-c4ccccc4F)c3)nn2c(N2CCC3(CC2)CC3)c1[C@H](OC(C)(C)C)C(=O)O [Example 51, (S)-2-(tert-Butoxy)-2-(2-(2′-fluoro-[1,1′-biphenyl]-3-yl)-5-methyl-7-(6-azaspiro[2.5]octan-6-yl)pyrazolo[1,5-a]pyrimidin-6-yl)acetic acid] | 0.1 to 1 µM | – | –
Cc1nc2cc(-c3ccccc3)nn2c(N2CCc3ccccc3C2)c1C(OC(C)(C)C)C(=O)O (stereo not shown) [Example 3, 2-(tert-butoxy)-2-(7-(3,4-dijydroisoquinolin-2(1H)-yl)-5-methyl-2-phenylpyrazolo[1,5a]pyrimidin-6-yl)acetic acid] | > 1 µM | – | –
COc1ccccc1-c1cccc(-c2cc3nc(C)c([C@H](OC(C)(C)C)C(=O)O)c(N4CCC(C)(C)CC4)n3n2)c1 [Example 59, (S)-2-(tert-Butoxy)-2-(7-(4,4-dimethylpiperidin-1-yl)-2-(2′-methoxy-[1,1′-biphenyl]-3-yl)-5-methylpyrazolo[1,5-a]pyrimidin-6-yl)acetic acid] | < 0.1 µM | 0.015 µM | –
Cc1nc2cc(-c3ccccc3)nn2c(N2CCCC(F)C2)c1C(OC(C)(C)C)C(=O)O (stereo not shown) [Example 18] | > 1 µM | – | –
Cc1nc2cc(-c3ccccc3)nn2c(N2CCN(C)CC2)c1C(OC(C)(C)C)C(=O)O (stereo not shown) [Example 7, 2-(tert-butoxy)-2-(5-methyl-7(4-methylpiperazin-1-yl)-2-phenylpyrazolo[1,5a]pyrimidin-6-yl)acetic acid] | > 1 µM | 5.2 µM | –
Cc1nc2cc(-c3ccc4c(c3)CCCC4)nn2c(N2CCC(C)CC2)c1[C@H](OC(C)(C)C)C(=O)O [Example 34, (S)-2-(tert-Butoxy)-2-(5-methyl-7-(4-methylpiperidin-1-yl)-2-(5,6,7,8-tetrahydronaphthalen-2-yl)pyrazolo[1,5-a]pyrimidin-6-yl)acetic acid] | 0.1 to 1 µM | – | –
Cc1nc2nc(-c3ccccc3)nn2c(N2CCCC(C)(C)C2)c1C(OC(C)(C)C)C(=O)O (stereo not shown) [Example 41, 2-(tert-Butoxy)-2-(7-(3,3-dimethylpiperidin-1-yl)-5-methyl-2-phenyl-[1,2,4]triazolo[1,5-a]pyrimidin-6-yl)acetic acid] | < 0.1 µM | – | –

Compound | EC50 [1] | EC50 [2] | EC50 (read-out: Activity, MT-2 cells infected with NL-RLuc virus, 5 days of incubation, luciferase readout, serum condition not given)
Cc1nc2cc(-c3ccccc3)nn2c(N2CCC(C)(C)CC2)c1C(OC(C)(C)C)C(=O)O (stereo not shown) [Example 1, 2-(tert-butoxy)-2-(7-(4,4-dimethylpiperidin-1-yl)-5-methyl-2-phenylpyrazolo[1,5a]pyrimidin-6-yl)acetic acid] | 0.1 to 1 µM | 0.55 µM | –
Cc1nc2cc(-c3ccccc3)nn2c(N2CCC(O)CC2)c1C(OC(C)(C)C)C(=O)O (stereo not shown) [Example 15] | > 1 µM | – | –
Cc1nc2nc(-c3ccccc3)nn2c(N2CC[C@H]3CCCC[C@H]3C2)c1C(OC(C)(C)C)C(=O)O (stereo partly drawn) [Example 39, 2-(tert-Butoxy)-2-(5-methyl-7-((4aR,8aR)-octahydroisoquinolin-2(1H)-yl)-2-phenyl-[1,2,4]triazolo[1,5-a]pyrimidin-6-yl)acetic acid] | 0.1 to 1 µM | – | –
Cc1nc2cc(-c3cccc(-c4ccc5cnn(C)c5c4)c3)nn2c(N2CCC3(CC2)CC3)c1[C@H](OC(C)(C)C)C(=O)O [Example 60, (S)-2-(tert-Butoxy)-2-(5-methyl-2-(3-(1-methyl-1H-indazol-6-yl)phenyl)-7-(6-azaspiro[2.5]octan-6-yl)pyrazolo[1,5-a]pyrimidin-6-yl)acetic acid] | < 0.1 µM | – | –
Cc1nc2cc(-c3cccc(-c4cccc(F)c4)c3)nn2c(N2CCC3(CC2)CC3)c1[C@H](OC(C)(C)C)C(=O)O [Example 53, (S)-2-(tert-Butoxy)-2-(2-(3′-fluoro-[1,1′-biphenyl]-3-yl)-5-methyl-7-(6-azaspiro[2.5]octan-6-yl)pyrazolo[1,5-a]pyrimidin-6-yl)acetic acid] | 0.1 to 1 µM | – | –
Cc1nc2cc(-c3cccc(-c4ccccc4)c3)nn2c(N2CCC3(CC2)CC3)c1[C@H](OC(C)(C)C)C(=O)O [Example 47, (S)-2-(2-([1,1′-Biphenyl]-3-yl)-5-methyl-7-(6-azaspiro[2.5]octan-6-yl)pyrazolo[1,5-a]pyrimidin-6-yl)-2-(tert-butoxy)acetic acid] | 0.1 to 1 µM | – | –
Cc1nc2cc(-c3cccc(Oc4ccccc4)n3)nn2c(N2CCC(C)(C)CC2)c1[C@H](OC(C)(C)C)C(=O)O [Example 68, (S)-2-(tert-Butoxy)-2-(7-(4,4-dimethylpiperidin-1-yl)-5-methyl-2-(6-phenoxypyridin-2-yl)pyrazolo[1,5-a]pyrimidin-6-yl)acetic acid] | 0.1 to 1 µM | – | –
Cc1nc2cc(-c3ccccc3)nn2c(N2CCC3(CCCC3)CC2)c1[C@H](OC(C)(C)C)C(=O)O [Example 27, (S)-2-(tert-butoxy)-2-(5-methyl-2-phenyl-7-(8-azaspiro[4.5]decan-8-yl)pyrazolo[1,5-a]pyrimidin-6-yl) acetic acid] | > 1 µM | – | –
Cc1nc2cc(-c3ccccc3)nn2c(N2CCC(Br)CC2)c1C(OC(C)(C)C)C(=O)O (stereo not shown) [Example 22] | > 1 µM | – | –
Cc1nc2cc(-c3cccc(-c4ccccc4)c3)nn2c(N2C3CCC2CN(C)C3)c1[C@H](OC(C)(C)C)C(=O)O [Example 50, (S)-2-(2-([1,1′-Biphenyl]-3-yl)-5-methyl-7-((1R,5S)-3-methyl-3,8-diazabicyclo[3.2.4]octan-8-yl)pyrazolo[1,5-a]pyrimidin-6-yl)-2-(tert-butoxy)acetic acid] | > 1 µM | 3.23 µM | –
Cc1nc2cc(-c3ccccc3)nn2c(N2CCC(C)CC2)c1C(OC(C)(C)C)C(=O)O (stereo not shown) [Example 8, 2-(tert-butoxy)-2-(5-methyl-7-(4-methylpiperidin-1-yl)-2-phenylpyrazolo[1,5a]pyrimidin-6-yl)acetic acid] | 0.1 to 1 µM | 0.72 µM | –
Cc1nc2cc(-c3cccc(Cc4ccccc4)n3)nn2c(N2CCC(C)(C)CC2)c1[C@H](OC(C)(C)C)C(=O)O [Example 70, (S)-2-(2-(6-Benzylpyridin-2-yl)-7-(4,4-dimethylpiperidin-1-yl)-5-methylpyrazolo[1,5-a]pyrimidin-6-yl)-2-(tert-butoxy)acetic acid] | 0.1 to 1 µM | – | –
Cc1nc2cc(-c3ccccc3)nn2c(N2CCC(C(=O)O)CC2)c1C(OC(C)(C)C)C(=O)O (stereo not shown) [Example 13] | > 1 µM | – | –
Cc1nc2cc(-c3ccccc3)nn2c(N2CCCC(C)C2)c1C(OC(C)(C)C)C(=O)O (stereo not shown) [Example 10] | > 1 µM | – | –
Cc1nc2cc(-c3cccc(-c4ccccc4)c3)nn2c(N2CCC(C)(C)CC2)c1C(OC(C)(C)C)C(=O)O (stereo not shown) [Example 35, 2-(2-([1,1′-Biphenyl]-3-yl)-7-(4,4-dimethylpiperidin-1-yl)-5-methylpyrazolo[1,5-a]pyrimidin-6-yl)-2-(tert-butoxy)acetic acid] | 0.1 to 1 µM | 0.13 µM | –
Cc1nc2cc(-c3ccccc3)nn2c(N2CCCCC2C)c1C(OC(C)(C)C)C(=O)O (stereo not shown) [Example 19] | 0.1 to 1 µM | – | –
